Assay results reported in PMC9354042, “Discovery of BRAF/HDAC Dual Inhibitors Suppressing Proliferation of Human Colorectal Cancer Cells” (Frontiers in Chemistry, 2022).

Experiments:
HCT116 cells = assay: Antiproliferation CCK-8 assay, HCT116; assay type: cell-based; settings: Homo sapiens, HCT-116; CCK-8, 72 h, HCT116 (wild-type BRAF); means of three independent experiments; read-out: Cellular IC50 HCT116
Protocol: (§1) HCT116 and HT-29 cells were obtained from the Shanghai Cell Bank (Type Culture Collection (TCC), Chinese Academy of Sciences) and cultured in DMEM (10–013-CVR, corning) supplemented with 10% fetal bovine serum (04-001-1A, BI), 1% penicillin/streptomycin (03-031-1B, BI).
(§2) The cells in the logarithmic phase were placed in 96-well plates (∼3000 cells/well) in a complete medium. After incubation overnight, the cells were exposed to the corresponding compounds or vehicle control at the indicated concentration for a further 72 h. Cell proliferation was evaluated using Cell Counting Kit 8 (CCK8, CK04, Dojindo Laboratories, Kumamoto, Japan). OD450 and OD650 were determined using a microplate reader. Absorbance rate (A) for each well was calculated as OD450 −OD650. […] Each IC50 value is expressed as mean ± SD. As is the absorbance rate of the test compound well, Ac is the absorbance rate of the well without either the cell or test compound, and Ab is the absorbance rate of the well with the cell and vehicle control.

BRAF^V600E = biological target: T1, BRAF^V600E (Homo sapiens, UniProt P15056, V600E); assay: BRAF V600E enzymatic activity, FRET-based Z'-Lyte kinase assay; assay type: biochemical
T1 construct: purchased Invitrogen
Protocol: The experiments were performed according to the instructions of the manufacturer. […] For each assay, 10 μl kinase reactions were added to 384-well plate, mixed thoroughly, and incubated for 1 hour at room temperature. Then, a 5 μl development solution was added to each well and the plate was incubated for another 1 h at room temperature. Then, a 5 μl stop reagent was loaded to stop the reaction. For the control setting, a 5 μl phospho-peptide solution instead of kinase/peptide mixture was used as 100% phosphorylation control. […] The plate was measured on an EnVision Multilabel Reader (Perkin-Elmer). Curve fitting and data presentations were performed using GraphPad Prism, version 5.0. Every experiment was repeated at least two times.

HDAC1 = biological target: T2, HDAC1 (Homo sapiens, UniProt Q13547); assay: HDAC1 fluorescent-based enzymatic activity assay; assay type: biochemical; settings: Table 1; read-out: Enzymatic IC50 HDAC1
T2 construct: purchased BPS Bioscience
Protocol: (§3) The purified recombinant Human HDACs and their corresponding substrates were purchased from BPS Bioscience (BPS Bioscience Inc., United States). The assays were carried out in a 384-well format using the BPS fluorescent–based HDAC activity assay according to the manufacturer’s protocol. In brief, […] of the HDAC reaction mixture was composed of HDAC assay buffer, […] BSA, serial diluted test compounds, appropriate concentration of HDACs, and […] fluorogenic substrate, the mixture was incubated at 37°C for 60 min, and then stopped by the addition of developer containing trypsin and TSA. After 20 min of incubation, the fluorescence was detected at the excitation wavelength of 360 nm and the emission wavelength of 460 nm using the EnVision Multilabel Reader (PerkinElmer Inc., United States). The analytical software, GraphPad Prism 5.0 (GraphPad Software, Inc., United States) was used to generate IC50 value via non-linear regression analysis.

HT-29 cells = assay: Antiproliferation CCK-8 assay, HT-29; assay type: cell-based; settings: Homo sapiens; CCK-8, 72 h, HT-29 (BRAF^V600E); means of three independent experiments; read-out: Cellular IC50 HT-29
Protocol: as §1, §2

HDAC6 = biological target: T3, HDAC6 (Homo sapiens, UniProt Q9UBN7); assay: HDAC6 fluorescent-based enzymatic activity assay; assay type: biochemical; settings: Table 1; read-out: Enzymatic IC50 HDAC6
T3 construct: purchased BPS Bioscience
T3 sequence (Q9UBN7 1-1215): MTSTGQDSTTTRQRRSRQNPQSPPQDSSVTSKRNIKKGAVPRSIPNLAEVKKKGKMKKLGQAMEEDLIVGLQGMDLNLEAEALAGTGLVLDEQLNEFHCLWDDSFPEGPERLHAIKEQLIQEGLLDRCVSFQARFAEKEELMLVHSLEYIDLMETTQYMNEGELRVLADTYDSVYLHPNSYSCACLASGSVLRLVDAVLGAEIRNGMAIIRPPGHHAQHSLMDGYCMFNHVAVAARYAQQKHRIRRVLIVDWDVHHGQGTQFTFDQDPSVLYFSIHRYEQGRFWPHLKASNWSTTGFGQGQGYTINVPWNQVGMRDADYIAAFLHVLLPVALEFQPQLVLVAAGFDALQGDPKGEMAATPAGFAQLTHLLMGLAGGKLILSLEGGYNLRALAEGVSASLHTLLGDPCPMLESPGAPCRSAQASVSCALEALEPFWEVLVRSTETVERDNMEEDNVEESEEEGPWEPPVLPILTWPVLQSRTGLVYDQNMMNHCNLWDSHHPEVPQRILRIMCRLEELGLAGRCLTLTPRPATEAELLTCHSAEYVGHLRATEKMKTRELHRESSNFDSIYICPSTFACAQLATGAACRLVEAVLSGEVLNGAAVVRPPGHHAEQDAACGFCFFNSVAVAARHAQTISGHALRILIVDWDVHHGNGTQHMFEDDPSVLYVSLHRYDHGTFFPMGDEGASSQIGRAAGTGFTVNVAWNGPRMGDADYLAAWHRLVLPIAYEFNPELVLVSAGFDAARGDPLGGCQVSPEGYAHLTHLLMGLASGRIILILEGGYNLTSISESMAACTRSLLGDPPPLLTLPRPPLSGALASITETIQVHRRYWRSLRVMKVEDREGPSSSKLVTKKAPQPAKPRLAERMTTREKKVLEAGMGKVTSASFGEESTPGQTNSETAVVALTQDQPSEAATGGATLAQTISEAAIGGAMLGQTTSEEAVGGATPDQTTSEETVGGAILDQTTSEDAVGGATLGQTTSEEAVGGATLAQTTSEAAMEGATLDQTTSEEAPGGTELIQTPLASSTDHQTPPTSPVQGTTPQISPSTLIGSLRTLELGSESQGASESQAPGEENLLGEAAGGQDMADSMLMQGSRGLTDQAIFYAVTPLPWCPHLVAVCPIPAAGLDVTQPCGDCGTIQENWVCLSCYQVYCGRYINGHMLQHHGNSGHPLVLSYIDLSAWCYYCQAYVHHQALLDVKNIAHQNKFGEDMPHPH
Protocol: as §3

T2 sequence (Q13547 whole entry): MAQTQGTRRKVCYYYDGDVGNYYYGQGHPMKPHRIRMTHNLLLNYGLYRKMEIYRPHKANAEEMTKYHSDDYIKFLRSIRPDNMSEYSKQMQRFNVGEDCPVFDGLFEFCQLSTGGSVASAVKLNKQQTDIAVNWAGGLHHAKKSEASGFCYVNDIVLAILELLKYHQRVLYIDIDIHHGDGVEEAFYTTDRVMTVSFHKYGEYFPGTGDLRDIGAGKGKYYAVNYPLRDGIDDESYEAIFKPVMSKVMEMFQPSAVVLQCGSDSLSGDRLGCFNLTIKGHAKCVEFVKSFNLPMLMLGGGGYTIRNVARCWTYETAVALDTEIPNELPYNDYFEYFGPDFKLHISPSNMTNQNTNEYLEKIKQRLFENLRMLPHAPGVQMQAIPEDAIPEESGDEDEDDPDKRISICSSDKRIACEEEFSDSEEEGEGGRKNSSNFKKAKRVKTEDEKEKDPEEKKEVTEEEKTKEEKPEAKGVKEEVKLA
T1 sequence (P15056 whole entry V600E): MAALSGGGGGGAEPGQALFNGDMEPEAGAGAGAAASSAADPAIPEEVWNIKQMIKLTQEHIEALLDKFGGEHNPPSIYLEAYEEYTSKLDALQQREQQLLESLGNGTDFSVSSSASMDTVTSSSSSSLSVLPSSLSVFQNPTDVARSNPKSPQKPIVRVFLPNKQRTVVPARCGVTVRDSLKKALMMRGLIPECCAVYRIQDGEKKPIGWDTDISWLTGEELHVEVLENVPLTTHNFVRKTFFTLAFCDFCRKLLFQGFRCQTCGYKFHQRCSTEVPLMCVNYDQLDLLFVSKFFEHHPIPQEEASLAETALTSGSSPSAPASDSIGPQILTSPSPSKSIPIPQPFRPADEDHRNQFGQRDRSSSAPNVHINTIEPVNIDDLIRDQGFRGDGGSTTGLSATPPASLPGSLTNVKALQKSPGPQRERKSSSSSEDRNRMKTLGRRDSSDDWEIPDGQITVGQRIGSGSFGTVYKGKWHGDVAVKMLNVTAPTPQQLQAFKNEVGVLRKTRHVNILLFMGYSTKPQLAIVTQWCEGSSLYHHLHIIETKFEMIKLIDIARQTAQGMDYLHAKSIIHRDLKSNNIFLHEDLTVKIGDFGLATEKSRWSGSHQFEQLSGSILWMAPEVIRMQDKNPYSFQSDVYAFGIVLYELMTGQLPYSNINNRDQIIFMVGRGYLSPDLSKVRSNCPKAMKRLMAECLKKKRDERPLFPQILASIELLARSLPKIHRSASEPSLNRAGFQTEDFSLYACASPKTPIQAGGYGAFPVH

Row | IC50 (HCT116 cells) | IC50 (BRAF^V600E) | IC50 (HDAC1) | IC50 (HT-29 cells) | IC50 (HDAC6) | SMILES
1 | 3080 nM | 1.07 nM | 105 nM | 970 nM | 64.6 nM | CCCc1nc(-c2cccc(NS(=O)(=O)c3c(F)cccc3F)c2F)c(-c2ccnc(NCCCCCCC(=O)NO)n2)s1 [14i, 7-{[4-(4-(3-(2,6-Difluorophenylsulfonamido)-2-Fluorophenyl)-2-Propylthiazol-5-yl)Pyrimidin-2-yl]Amino}-N-Hydroxyheptanamide]
2 | > 10000 nM | 258 nM | 71 nM | > 10000 nM | 21.8 nM | Cc1nc(-c2cccc(NS(C)(=O)=O)c2F)c(-c2ccnc(NCCCCCCC(=O)NO)n2)s1 [21d, 7-{[4-(4-(2-Fluoro-3-(Methylsulfonamido)Phenyl)-2-Methylthiazol-5-yl)Pyrimidin-2-yl]Amino}-N-Hydroxyheptanamide]
3 | 8520 nM | 1.03 nM | 113 nM | 5020 nM | 22.2 nM | CC(C)(C)c1nc(-c2cccc(NS(C)(=O)=O)c2F)c(-c2ccnc(NCCCCCCC(=O)NO)n2)s1 [21a, 7-{[4-(2-(Tert-Butyl)-4-(2-Fluoro-3-(Methylsulfonamido)Phenyl)Thiazol-5-yl)Pyrimidin-2-yl]Amino}-N-Hydroxyheptanamide]
4 | 9150 nM | 107 nM | 52.2 nM | > 10000 nM | 18.8 nM | CCS(=O)(=O)Nc1cccc(-c2nc(C)sc2-c2ccnc(NCCCCCCC(=O)NO)n2)c1F [21e, 7-{[4-(4-(3-(Ethylsulfonamido)-2-Fluorophenyl)-2-Methylthiazol-5-yl)Pyrimidin-2-yl]Amino}-N-Hydroxyheptanamide]
5 | 5440 nM | 1.71 nM | 432 nM | 780 nM | 72.1 nM | CCCS(=O)(=O)Nc1cccc(-c2nc(C(C)(C)C)sc2-c2ccnc(NCCCCCCC(=O)NO)n2)c1F [21b, 7-{[4-(2-(Tert-Butyl)-4-(2-Fluoro-3-(Propylsulfonamido)Phenyl)Thiazol-5-yl)Pyrimidin-2-yl]Amino}-N-Hydroxyheptanamide]
6 | 4410 nM | 3.92 nM | 49.4 nM | 4960 nM | 18.7 nM | Cc1nc(-c2cccc(NS(=O)(=O)c3ccccc3)c2F)c(-c2ccnc(NCCCCCCC(=O)NO)n2)s1 [21f, 7-{[4-(4-(2-Fluoro-3-(Phenylsulfonamido)Phenyl)-2-Methylthiazol-5-yl)Pyrimidin-2-yl]Amino}-N-Hydroxyheptanamide]
7 | 4710 nM | 1.31 nM | 49.8 nM | 2210 nM | 27.1 nM | O=C(CCCCCCNc1nccc(-c2sc(C3CC3)nc2-c2cccc(NS(=O)(=O)c3c(F)cccc3F)c2F)n1)NO [14h, 7-{[4-(2-Cyclopropyl-4-(3-(2,6-Difluorophenylsulfonamido)-2-Fluorophenyl)Thiazol-5-yl)Pyrimidin-2-yl]Amino}-N-Hydroxyheptanamide]

Continued, molecule first:

Row | SMILES | IC50 (HCT116 cells) | IC50 (BRAF^V600E) | IC50 (HDAC1) | IC50 (HT-29 cells) | IC50 (HDAC6)
8 | CC(C)(C)c1nc(-c2cccc(NS(=O)(=O)c3c(F)cccc3F)c2F)c(-c2ccnc(NCCCCCCCC(=O)NO)n2)s1 [14c, 8-{[4-(2-(Tert-Butyl)-4-(3-(2,6-Difluorophenylsulfonamido)-2-Fluorophenyl)Thiazol-5-yl)Pyrimidin-2-yl]Amino}-N-Hydroxyoctanamide] | 4470 nM | 2.27 nM | 312 nM | 880 nM | 128 nM
9 | Cc1nc(-c2cccc(NS(=O)(=O)c3c(F)cccc3F)c2F)c(-c2ccnc(NCCCCCCC(=O)NO)n2)s1 [14e, 7-{[4-(4-(3-(2,6-Difluorophenylsulfonamido)-2-Fluorophenyl)-2-Methylthiazol-5-yl)Pyrimidin-2-yl]Amino}-N-Hydroxyheptanamide] | 7530 nM | 3.5 nM | 42.2 nM | 6390 nM | 14.6 nM
10 | CCc1nc(-c2cccc(NS(=O)(=O)c3c(F)cccc3F)c2F)c(-c2ccnc(NCCCCCCC(=O)NO)n2)s1 [14f, 7-{[4-(4-(3-(2,6-Difluorophenylsulfonamido)-2-Fluorophenyl)-2-Ethylthiazol-5-yl)Pyrimidin-2-yl]Amino}-N-Hydroxyheptanamide] | 4270 nM | 1.66 nM | 61.3 nM | 1270 nM | 26.5 nM
11 | CC(C)c1nc(-c2cccc(NS(=O)(=O)c3c(F)cccc3F)c2F)c(-c2ccnc(NCCCCCCC(=O)NO)n2)s1 [14g, 7-{[4-(4-(3-(2,6-Difluorophenylsulfonamido)-2-Fluorophenyl)-2-Isopropylthiazol-5-yl)Pyrimidin-2-yl]Amino}-N-Hydroxyheptanamide] | 2680 nM | 1.51 nM | 130 nM | 990 nM | 30 nM
12 | CC(C)(C)c1nc(-c2cccc(NS(=O)(=O)c3c(F)cccc3F)c2F)c(-c2ccnc(NCCCCCC(=O)NO)n2)s1 [14a] | 3000 nM | 3.25 nM | 679 nM | 1000 nM | 1210 nM
13 | CC(C)(C)c1nc(-c2cccc(NS(=O)(=O)c3c(F)cccc3F)c2F)c(-c2ccnc(NCCCCCCCCC(=O)NO)n2)s1 [14d, 9-{[4-(2-(Tert-Butyl)-4-(3-(2,6-Difluorophenylsulfonamido)-2-Fluorophenyl)Thiazol-5-yl)Pyrimidin-2-yl]Amino}-N-Hydroxynonanamide] | 3660 nM | 3.82 nM | 765 nM | 480 nM | 322 nM
